Measured values from patent US10738094B2, “Peptides and combination of peptides for use in immunotherapy against ovarian cancer and other cancers” (immatics biotechnologies GmbH, priority 2015, dated 2020).

How the values were obtained:
CD8+ T cells = test: In vitro immunogenicity for MHC class I presented peptides (priming of CD8+ T cells with aAPCs, pMHC multimer staining); assay type: cell-based, human; settings: for Wells positive [%]: HLA-A*02 restricted peptides, positive wells among evaluable
Excerpt: In order to obtain information regarding the immunogenicity of the TUMAPs of the present invention, the inventors performed investigations using an in vitro T-cell priming assay based on repeated stimulations of CD8+ T cells with artificial antigen presenting cells (aAPCs) loaded with peptide/MHC complexes and anti-CD28 antibody.
In order to perform in vitro stimulations by artificial antigen presenting cells loaded with peptide-MHC complex (pMHC) and anti-CD28 antibody, the inventors first isolated CD8+ T cells from fresh HLA-A*02 leukapheresis products via positive selection using CD8 microbeads (Miltenyi Biotec, Bergisch-Gladbach, Germany) of healthy donors obtained from the University clinics Mannheim, Germany, after informed consent.
PBMCs and isolated CD8+ lymphocytes were incubated in T-cell medium (TCM) until use consisting of RPMI-Glutamax (Invitrogen, Karlsruhe, Germany) supplemented with 10% heat inactivated human AB serum (PAN-Biotech, Aidenbach, Germany), 100 U/ml Penicillin/100 μg/ml Streptomycin (Cambrex, Cologne, Germany), 1 mM sodium pyruvate (CC Pro, Oberdorla, Germany), 20 μg/ml Gentamycin (Cambrex). 2.5 ng/ml IL-7 (PromoCell, Heidelberg, Germany) and 10 U/ml IL-2 (Novartis Pharma, Nürnberg, Germany) were also added to the TCM at this step.
Generation of pMHC/anti-CD28 coated beads, T-cell stimulations and readout was performed in a highly defined in vitro system using four different pMHC molecules per stimulation condition and 8 different pMHC molecules per readout condition.
The purified co-stimulatory mouse IgG2a anti human CD28 Ab 9.3 (Jung et al., 1987) was chemically biotinylated using Sulfo-N-hydroxysuccinimidobiotin as recommended by the manufacturer (Perbio, Bonn, Germany). Beads used were 5.6 μm diameter streptavidin coated polystyrene particles (Bangs Laboratories, Illinois, USA).
pMHC used for positive and negative control stimulations were A*0201/MLA-001 (peptide […] (SEQ ID NO. 664) from modified Melan-A/MART-1) and A*0201/DDX5-001 ([…] from DDX5, SEQ ID NO. 665), respectively.
800,000 beads/200 μl were coated in 96-well plates in the presence of 4×12.5 ng different biotin-pMHC, washed and 600 ng biotin anti-CD28 were added subsequently in a volume of 200 μl. Stimulations were initiated in 96-well plates by co-incubating […] CD8+ T cells with 2×10^5 washed coated beads in 200 μl TCM supplemented with 5 ng/ml IL-12 (PromoCell) for 3 days at 37° C. Half of the medium was then exchanged by fresh TCM supplemented with 80 U/ml IL-2 and incubating was continued for 4 days at 37° C. This stimulation cycle was performed for a total of three times. For the pMHC multimer readout using 8 different pMHC molecules per condition, a two-dimensional combinatorial coding approach was used as previously described (Andersen et al., 2012) with minor modifications encompassing coupling to 5 different fluorochromes. Finally, multimeric analyses were performed by staining the cells with Live/dead near IR dye (Invitrogen, Karlsruhe, Germany), CD8-FITC antibody clone SK1 (BD, Heidelberg, Germany) and fluorescent pMHC multimers. For analysis, a BD LSRII SORP cytometer equipped with appropriate lasers and filters was used. Peptide specific cells were calculated as percentage of total CD8+ cells. Evaluation of multimeric analysis was done using the FlowJo software (Tree Star, Oreg., USA). In vitro priming of specific multimer+ CD8+ lymphocytes was detected by comparing to negative control stimulations.
Exemplary flow cytometry results after TUMAP-specific multimer staining for two peptides of the invention are shown in FIG. 3 together with corresponding negative controls.

HLA-A*02:01 = HLA-A*02:01 (Homo sapiens, UniProt P04439, D140Y/D185E/D98H/E176V/E277Q/G131W/G231S/I119V/I121R/I166T/I218V/L300P/L318F/N151K/N90K/P208A/P217A/Q86G/Q94H/R138H/R169H/T345S); test: MHC binding assay (UV-ligand exchange, beta2m ELISA); settings: binding to HLA-A*02:01 ranged by peptide exchange yield (UV-ligand exchange, β2m ELISA)
Procedure, shortened: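 UV-cleavable ligand in peptide-MHC complexes was exchanged for test peptide. Exchange yield came from an ELISA on streptavidin-captured complexes diluted 100 fold, detecting β2m with HRP anti-β2m (2 ug/ml, 1 h, 37° C.), TMB, A450.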

Substance	Wells positive [%] (CD8+ T cells)	Peptide exchange (HLA-A*02:01)	in vitro immunogenicity: donors (CD8+ T cells; percentage of positive donors)
141 (YLDFSNNRL; listed as Homo sapiens) [compound 141]	“+” (<20% = +)	“++” (≥20% = ++)	–
2 (SLLEADPFL; listed as Homo sapiens) [compound 2]	“+” (<20% = +)	“+++” (≥50 = +++)	–
3 (SLASKLTTL; listed as Homo sapiens) [compound 3]	“+” (<20% = +)	“++++” (≥75% = ++++)	–
60 (SLTIDGIYYV; listed as Homo sapiens) [compound 60]	“++++” (>=70% = ++++)	“++++” (≥75% = ++++)	–
603 (FLIEPEHVNTV; listed as Homo sapiens) [compound 603]	“+” (<20% = +)	“++” (≥20% = ++)	–
511 (FLDPYCSASV; listed as Homo sapiens) [compound 511]	“+” (<20% = +)	“++” (≥20% = ++)	–
499 (KIFDIDEAEEGV; listed as Homo sapiens) [compound 499]	“+” (<20% = +)	“++” (≥20% = ++)	–
79 (SLFIGEKAVLL; listed as Homo sapiens) [compound 79]	“+” (<20% = +)	“+++” (≥50 = +++)	–
247 (VLLPNDLLEKV; listed as Homo sapiens) [compound 247]	“+” (<20% = +)	“+++” (≥50 = +++)	–
150 (RLWEEGEELEL; listed as Homo sapiens) [compound 150]	“+” (<20% = +)	“+++” (≥50 = +++)	–
113 (GLLPTPLFGV; listed as Homo sapiens) [compound 113]	“+” (<20% = +)	“+++” (≥50 = +++)	–
652 (TLWYRAPEV; listed as Homo sapiens) [compound 652]	–	–	++++ (>=70% = ++++)
118 (KLIDNNINV; listed as Homo sapiens) [compound 118]	“+” (<20% = +)	“+++” (≥50 = +++)	–
460 (AMLEKNYKL; listed as Homo sapiens) [compound 460]	“+” (<20% = +)	“++++” (≥75% = ++++)	–
8 (FTLGNVVGMYL; listed as Homo sapiens) [compound 8]	“+” (<20% = +)	“++++” (≥75% = ++++)	–
56 (KLYEGIPVLL; listed as Homo sapiens) [compound 56]	“+” (<20% = +)	“++++” (≥75% = ++++)	–
489 (KMWEELPEVV; listed as Homo sapiens) [compound 489]	“+” (<20% = +)	“+++” (≥50 = +++)	–
11 (KIFEMLEGV; listed as Homo sapiens) [compound 11]	“+” (<20% = +)	“+++” (≥50 = +++)	–
166 (YLNHLEPPV; listed as Homo sapiens) [compound 166]	“++++” (>=70% = ++++)	“+++” (≥50 = +++)	–
48 (ALAELYEDEV; listed as Homo sapiens) [compound 48]	“+” (<20% = +)	“+++” (≥50 = +++)	–
36 (YVLEDLEVTV; listed as Homo sapiens) [compound 36]	“+” (<20% = +)	“++” (≥20% = ++)	–
143 (LLLDITPEI; listed as Homo sapiens) [compound 143]	“+” (<20% = +)	“++++” (≥75% = ++++)	–
199 (ALQDVPLSSV; listed as Homo sapiens) [compound 199]	“+” (<20% = +)	“+++” (≥50 = +++)	–
319 (SLEPQIQPV; listed as Homo sapiens) [compound 319]	“+” (<20% = +)	“++” (≥20% = ++)	–
384 (ILFANPNIFV; listed as Homo sapiens) [compound 384]	“+” (<20% = +)	“+++” (≥50 = +++)	–
38 (FLLEDDIHVS; listed as Homo sapiens) [compound 38]	“+” (<20% = +)	“+++” (≥50 = +++)	–
443 (GLWEIENNPTV; listed as Homo sapiens) [compound 443]	“+” (<20% = +)	“+++” (≥50 = +++)	–
